Measured values as given in patent US10792232B2, “Methods to deliver antifibrinolytic drugs for anti-aging results” (MURDOCK TECHNOLOGIES, LLC, priority 2016, dated 2020).
Where two headings read alike, the source gives them in different places.

Assays:
[1] = system: surface of the face; settings: 1-2 ml of 10% solution applied daily to the face, over 14-21 days
Text: The present invention is based on the realization that the aging process and its physical effects on the skin and body involve the activation of a fibrinolytic process. […] The dosage of antifibrinolytic agent(s) should be less than 6 grams per day. […] A particularly advantageous manner of administration for topical delivery is by single use pre-impregnated towelettes applied to the area of the skin to be treated.

[2] = system: dark patches of skin; settings: injected directly into affected area, sometimes with laser therapy, melasma patients; cited from earlier work
[3] = system: mice that are bred to display skin dryness; settings: oral, 750 mg/kg/day over 20 days; cited from earlier work
[4] = cited from earlier work

NC[C@H]1CC[C@H](C(=O)O)CC1 [tranexamic acid]
lines and wrinkles [1]: lines and wrinkles are fewer and less pronounced | overall skin tone [1]: improved | effect on dark patches of skin [2]: lighten dark patches of skin | effect on wrinkles caused by skin dryness [3]: amelioration effect on wrinkles specifically caused by skin dryness | dose shown to induce seizures ([4]; equivalent of 80 mg/kg/day): approximately 6 grams per day | dose shown to induce seizures ([4]; in vivo): > 80 mg/kg/day
